Key:
Test in all cases: biochemical
Set-up in all cases: KINOMEscan competition binding panel, per cent of control
Settings in all cases: read-out: %Ctrl @ 2800nM
[1] = target: T1, ABL1(F317L)-nonphosphorylated (Homo sapiens, UniProt P00519, F317L)
T1 construct: nonphosphorylated
Experimental: (§1) A panel of binding assays covering 450 human kinases and disease-relevant mutations was performed by DiscoverX (KINOMEscan®, Freemont, CA, USA) according to the standard and validated protocol defined by the contractor. […] Kinase binding assays This study was outsourced to DiscoverX (KINOMEscan®, Freemont, CA, USA) and is compliant with the corresponding project BUY004-01-p-00001. […] Results are reported as percent control (% Ctrl), where lower numbers indicate stronger hits in the matrix on the following page(s). %Ctrl calculation: ((test compound signal-positive control signal) / (negative control signal – positive control signal)) x 100.

[2] = target: T2, ABL1(Q252H)-nonphosphorylated (Homo sapiens, UniProt P00519, Q252H)
T2 construct: nonphosphorylated
Experimental: as §1

[3] = target: T3, CDK4-cyclinD1 (Homo sapiens, UniProt P11802)
T3 construct: cyclinD1
Experimental: as §1

[4] = target: CLK2 (Homo sapiens, UniProt P49760)
Experimental: as §1

[5] = target: DDR2 (Homo sapiens, UniProt Q16832)
Experimental: as §1

[6] = target: EGFR(G719S) (Homo sapiens, UniProt P00533, G719S)
Experimental: as §1

[7] = target: EGFR(S752-I759del) (Homo sapiens, UniProt P00533, DEL752-759)
Chain of EGFR(S752-I759del) (P00533 with tags, fused parts or gaps DEL752-759): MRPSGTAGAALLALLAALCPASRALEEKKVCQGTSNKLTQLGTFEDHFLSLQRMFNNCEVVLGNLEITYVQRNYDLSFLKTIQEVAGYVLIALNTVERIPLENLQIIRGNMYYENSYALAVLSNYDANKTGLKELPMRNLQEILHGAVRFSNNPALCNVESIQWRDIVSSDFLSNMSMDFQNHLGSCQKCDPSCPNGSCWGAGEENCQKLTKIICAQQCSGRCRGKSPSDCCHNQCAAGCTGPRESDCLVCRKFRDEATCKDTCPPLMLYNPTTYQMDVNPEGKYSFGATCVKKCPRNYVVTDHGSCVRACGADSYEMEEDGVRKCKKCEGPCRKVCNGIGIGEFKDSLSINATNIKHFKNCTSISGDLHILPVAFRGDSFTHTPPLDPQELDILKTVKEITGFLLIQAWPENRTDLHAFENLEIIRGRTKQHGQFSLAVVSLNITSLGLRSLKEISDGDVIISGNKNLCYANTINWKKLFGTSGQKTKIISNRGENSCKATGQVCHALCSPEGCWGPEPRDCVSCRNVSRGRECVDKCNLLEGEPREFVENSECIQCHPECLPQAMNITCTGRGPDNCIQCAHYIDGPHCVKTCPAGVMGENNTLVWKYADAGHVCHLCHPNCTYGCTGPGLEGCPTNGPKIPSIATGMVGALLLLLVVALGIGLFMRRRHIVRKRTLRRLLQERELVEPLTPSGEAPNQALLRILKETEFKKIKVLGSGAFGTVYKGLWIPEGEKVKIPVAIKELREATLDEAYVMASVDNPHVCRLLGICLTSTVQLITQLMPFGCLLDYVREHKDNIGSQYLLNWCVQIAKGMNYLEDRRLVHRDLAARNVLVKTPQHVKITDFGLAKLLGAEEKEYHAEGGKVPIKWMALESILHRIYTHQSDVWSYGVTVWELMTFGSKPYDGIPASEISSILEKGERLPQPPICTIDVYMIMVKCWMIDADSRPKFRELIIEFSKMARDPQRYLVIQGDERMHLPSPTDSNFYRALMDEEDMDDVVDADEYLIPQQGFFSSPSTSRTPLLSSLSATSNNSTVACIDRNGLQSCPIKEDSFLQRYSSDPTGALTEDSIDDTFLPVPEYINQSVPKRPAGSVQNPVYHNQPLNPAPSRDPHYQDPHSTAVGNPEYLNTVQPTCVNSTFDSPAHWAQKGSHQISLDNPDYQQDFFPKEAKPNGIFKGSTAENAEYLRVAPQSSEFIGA
Experimental: as §1

[8] = target: EPHA4 (Homo sapiens, UniProt P54764)
Experimental: as §1

[9] = target: EPHA5 (Homo sapiens, UniProt P54756)
Chain of EPHA5 (P54756 whole entry): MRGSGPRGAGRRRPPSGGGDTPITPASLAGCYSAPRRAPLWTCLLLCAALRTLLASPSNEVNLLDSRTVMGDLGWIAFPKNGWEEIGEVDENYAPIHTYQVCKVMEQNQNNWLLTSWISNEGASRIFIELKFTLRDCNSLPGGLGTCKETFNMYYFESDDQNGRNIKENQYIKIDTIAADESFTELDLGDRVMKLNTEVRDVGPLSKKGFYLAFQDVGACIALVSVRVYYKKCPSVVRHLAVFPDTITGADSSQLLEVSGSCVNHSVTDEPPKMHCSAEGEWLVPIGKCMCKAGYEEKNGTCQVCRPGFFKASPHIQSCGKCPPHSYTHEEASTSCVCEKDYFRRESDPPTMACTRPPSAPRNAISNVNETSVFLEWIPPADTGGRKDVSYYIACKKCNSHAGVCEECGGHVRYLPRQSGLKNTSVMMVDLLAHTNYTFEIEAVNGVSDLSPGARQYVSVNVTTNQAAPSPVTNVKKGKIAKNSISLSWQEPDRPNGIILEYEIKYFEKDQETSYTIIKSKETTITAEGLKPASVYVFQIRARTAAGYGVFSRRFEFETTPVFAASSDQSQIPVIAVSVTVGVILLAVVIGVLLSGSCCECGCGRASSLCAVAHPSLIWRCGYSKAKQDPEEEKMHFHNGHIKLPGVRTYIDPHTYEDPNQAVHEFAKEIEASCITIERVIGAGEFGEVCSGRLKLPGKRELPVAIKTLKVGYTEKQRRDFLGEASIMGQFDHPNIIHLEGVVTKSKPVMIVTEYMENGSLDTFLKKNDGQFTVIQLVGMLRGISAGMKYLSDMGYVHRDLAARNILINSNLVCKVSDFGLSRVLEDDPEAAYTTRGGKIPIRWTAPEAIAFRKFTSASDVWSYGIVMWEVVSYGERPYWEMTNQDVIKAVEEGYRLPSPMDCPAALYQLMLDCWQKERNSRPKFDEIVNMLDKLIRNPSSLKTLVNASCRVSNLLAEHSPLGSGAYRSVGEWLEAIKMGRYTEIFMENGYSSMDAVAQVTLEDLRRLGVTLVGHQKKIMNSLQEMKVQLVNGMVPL
Experimental: as §1

[10] = target: EPHB2 (Homo sapiens, UniProt P29323)
Experimental: as §1

[11] = target: FGR (Homo sapiens, UniProt P09769)
Chain of FGR (P09769 whole entry): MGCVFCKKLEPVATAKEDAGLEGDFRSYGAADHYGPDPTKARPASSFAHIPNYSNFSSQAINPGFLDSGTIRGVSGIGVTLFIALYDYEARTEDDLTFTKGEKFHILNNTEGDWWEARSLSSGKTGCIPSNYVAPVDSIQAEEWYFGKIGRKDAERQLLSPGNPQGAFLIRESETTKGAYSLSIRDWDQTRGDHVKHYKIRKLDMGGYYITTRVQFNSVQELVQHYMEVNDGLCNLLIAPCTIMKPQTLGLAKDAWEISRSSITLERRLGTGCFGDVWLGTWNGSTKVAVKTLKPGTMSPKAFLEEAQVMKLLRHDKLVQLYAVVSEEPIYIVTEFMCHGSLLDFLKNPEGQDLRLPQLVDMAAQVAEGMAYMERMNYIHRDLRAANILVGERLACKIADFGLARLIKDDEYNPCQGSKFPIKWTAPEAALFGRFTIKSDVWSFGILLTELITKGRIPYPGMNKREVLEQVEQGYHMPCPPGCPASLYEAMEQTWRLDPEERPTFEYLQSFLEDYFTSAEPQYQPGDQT
Experimental: as §1

[12] = target: FLT3 (Homo sapiens, UniProt P36888)
Experimental: as §1

[13] = target: HIPK2 (Homo sapiens, UniProt Q9H2X6)
Experimental: as §1

[14] = target: T4, JAK1(JH1domain-catalytic) (Homo sapiens, UniProt P23458)
T4 construct: JH1domain-catalytic
Experimental: as §1

[15] = target: T5, JNK1 (Homo sapiens, UniProt P45983)
T5 construct: gene MAPK8
Experimental: as §1

[16] = target: LYN (Homo sapiens, UniProt P07948)
Chain of LYN (P07948 whole entry): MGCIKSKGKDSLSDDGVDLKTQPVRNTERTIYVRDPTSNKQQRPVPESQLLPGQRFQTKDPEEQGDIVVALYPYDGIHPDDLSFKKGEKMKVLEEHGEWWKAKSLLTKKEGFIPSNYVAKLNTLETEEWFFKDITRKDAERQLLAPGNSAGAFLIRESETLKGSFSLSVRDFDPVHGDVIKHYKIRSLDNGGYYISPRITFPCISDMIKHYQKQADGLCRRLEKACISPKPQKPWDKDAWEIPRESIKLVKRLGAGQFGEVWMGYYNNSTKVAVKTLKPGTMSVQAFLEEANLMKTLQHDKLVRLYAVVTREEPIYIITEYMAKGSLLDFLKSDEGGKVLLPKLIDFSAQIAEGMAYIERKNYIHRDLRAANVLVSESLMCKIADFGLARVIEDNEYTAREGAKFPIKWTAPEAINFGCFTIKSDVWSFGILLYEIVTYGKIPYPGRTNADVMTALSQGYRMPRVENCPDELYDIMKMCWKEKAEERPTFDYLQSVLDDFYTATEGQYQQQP
Experimental: as §1

[17] = target: MAP3K2 (Homo sapiens, UniProt Q9Y2U5)
Experimental: as §1

[18] = target: MAP4K5 (Homo sapiens, UniProt Q9Y4K4)
Experimental: as §1

[19] = target: T6, MINK (Homo sapiens, UniProt Q8N4C8)
T6 construct: gene MINK1
Experimental: as §1

[20] = target: T7, MKK7 (Homo sapiens, UniProt O14733)
T7 construct: gene MAP2K7
Experimental: as §1

[21] = target: MYLK4 (Homo sapiens, UniProt Q86YV6)
Chain of MYLK4 (Q86YV6 whole entry): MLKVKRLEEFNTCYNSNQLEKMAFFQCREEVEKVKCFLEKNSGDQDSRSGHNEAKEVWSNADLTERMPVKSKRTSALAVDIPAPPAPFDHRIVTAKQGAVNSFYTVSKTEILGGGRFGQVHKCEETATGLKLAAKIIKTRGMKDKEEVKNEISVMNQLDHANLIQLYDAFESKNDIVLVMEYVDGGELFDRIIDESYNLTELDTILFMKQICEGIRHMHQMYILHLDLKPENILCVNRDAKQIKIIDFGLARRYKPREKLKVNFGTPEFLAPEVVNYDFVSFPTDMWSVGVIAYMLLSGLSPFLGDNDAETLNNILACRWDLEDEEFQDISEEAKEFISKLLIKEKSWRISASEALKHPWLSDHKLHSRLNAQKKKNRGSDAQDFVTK
Experimental: as §1

[22] = target: PIK3CA(E542K) (Homo sapiens, UniProt P42336, E542K)
Experimental: as §1

[23] = target: PIK3CA(E545A) (Homo sapiens, UniProt P42336, E545A)
Experimental: as §1

[24] = target: PIK3CA(H1047L) (Homo sapiens, UniProt P42336, H1047L)
Experimental: as §1

[25] = target: PIK3CD (Homo sapiens, UniProt O00329)
Chain of PIK3CD (O00329 whole entry): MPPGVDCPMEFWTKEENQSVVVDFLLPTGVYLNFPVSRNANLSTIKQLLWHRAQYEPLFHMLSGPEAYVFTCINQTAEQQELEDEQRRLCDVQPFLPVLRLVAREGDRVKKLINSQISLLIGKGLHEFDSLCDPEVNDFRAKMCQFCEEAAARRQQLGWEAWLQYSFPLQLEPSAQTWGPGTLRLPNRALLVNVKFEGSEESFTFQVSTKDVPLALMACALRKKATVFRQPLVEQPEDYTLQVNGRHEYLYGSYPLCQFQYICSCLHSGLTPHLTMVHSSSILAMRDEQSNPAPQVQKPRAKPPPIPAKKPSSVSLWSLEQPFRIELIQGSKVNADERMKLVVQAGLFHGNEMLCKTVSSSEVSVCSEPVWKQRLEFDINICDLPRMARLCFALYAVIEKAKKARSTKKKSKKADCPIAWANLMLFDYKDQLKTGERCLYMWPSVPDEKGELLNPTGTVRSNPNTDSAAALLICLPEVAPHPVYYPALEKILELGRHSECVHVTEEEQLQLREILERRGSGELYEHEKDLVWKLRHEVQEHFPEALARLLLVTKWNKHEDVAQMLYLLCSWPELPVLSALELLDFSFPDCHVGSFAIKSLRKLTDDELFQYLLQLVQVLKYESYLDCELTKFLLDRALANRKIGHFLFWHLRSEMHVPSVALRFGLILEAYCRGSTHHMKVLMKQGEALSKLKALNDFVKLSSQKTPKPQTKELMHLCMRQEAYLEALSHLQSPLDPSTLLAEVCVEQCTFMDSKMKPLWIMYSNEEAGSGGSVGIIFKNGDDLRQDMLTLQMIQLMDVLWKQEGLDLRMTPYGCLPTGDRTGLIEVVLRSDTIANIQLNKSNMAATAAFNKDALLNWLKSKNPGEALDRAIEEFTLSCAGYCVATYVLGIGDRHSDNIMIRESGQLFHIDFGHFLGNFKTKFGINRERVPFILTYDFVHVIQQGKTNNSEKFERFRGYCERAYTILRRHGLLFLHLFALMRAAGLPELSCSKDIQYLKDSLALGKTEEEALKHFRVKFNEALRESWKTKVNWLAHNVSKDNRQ
Experimental: as §1

[26] = target: TESK1 (Homo sapiens, UniProt Q15569)
Experimental: as §1

## [O-][S@@+](Cc1cncs1)C(c1ccccc1)c1ccccc1 [S-CE-123, (S)-5-((Benzhydrylsulfinyl)Methyl)Thiazole]
[1]
  remaining binding at 2.8 µM: 100%
[2]
  remaining binding at 2.8 µM: 66%
[3]
  remaining binding at 2.8 µM: 100%
[4]
  remaining binding at 2.8 µM: 93%
[5]
  remaining binding at 2.8 µM: 100%
[6]
  remaining binding at 2.8 µM: 77%
[7]
  remaining binding at 2.8 µM: 66%
[8]
  remaining binding at 2.8 µM: 97%
[9]
  remaining binding at 2.8 µM: 86%
[10]
  remaining binding at 2.8 µM: 89%
[11]
  remaining binding at 2.8 µM: 100%
[12]
  remaining binding at 2.8 µM: 96%
[13]
  remaining binding at 2.8 µM: 100%
[14]
  remaining binding at 2.8 µM: 93%
[15]
  remaining binding at 2.8 µM: 67%
[16]
  remaining binding at 2.8 µM: 83%
[17]
  remaining binding at 2.8 µM: 100%
[18]
  remaining binding at 2.8 µM: 95%
[19]
  remaining binding at 2.8 µM: 87%
[20]
  remaining binding at 2.8 µM: 100%
[21]
  remaining binding at 2.8 µM: 89%
[22]
  remaining binding at 2.8 µM: 88%
[23]
  remaining binding at 2.8 µM: 93%
[24]
  remaining binding at 2.8 µM: 100%
[25]
  remaining binding at 2.8 µM: 86%
[26]
  remaining binding at 2.8 µM: 96%

— paper PMC10046369, “Low-Affinity/High-Selectivity Dopamine Transport Inhibition Sufficient to Rescue Cognitive Functions in the Aging Rat” (Biomolecules, 2023)
